# Tests used:
# [1] = test system: eIF2α phosphorylation in NIH3T3 cells; experiment: UV-induced eIF2α phosphorylation in NIH3T3 cells; type: cell-based; details: compared with MEFs, data not shown
# [2] = test system: eIF2α phosphorylation in NIH3T3 cells; details: cited from earlier work
smiles,measurement,setting,value
Oc1c2ccccc2c2c3c(cccc13)N=N2 [SP600125],Effect on UV-induced eIF2α phosphorylation in NIH3T3 cells (qualitative),[1],does not prevent eIF2α phosphorylation
same,Effect on eIF2α phosphorylation following UV irradiation (qualitative),[2],did not prevent the phosphorylation of eIF2α
